Measurements from ChEMBL document CHEMBL5303573, “Mapping human microbiome drug metabolism by gut bacteria and their genes” (Nature, 2019).

What was measured:
[1] = The drug is tested on Bifidobacterium ruminantium strain: fecal isolate for biotransformation. The drug concentrations were measured before and after a 12-h incubation by liquid-chromatography-coupled mass spectrometry (LC–MS); conditions: 2 µM
[2] = The drug is tested on Bacteroides cellulosilyticus strain: DSM14838 for biotransformation. The drug concentrations were measured before and after a 12-h incubation by liquid-chromatography-coupled mass spectrometry (LC–MS); conditions: 2 µM
[3] = The drug is tested on Bacteroides ovatus strain: ATCC8483 for biotransformation. The drug concentrations were measured before and after a 12-h incubation by liquid-chromatography-coupled mass spectrometry (LC–MS); conditions: 2 µM
[4] = The drug is tested on Bacteroides sp. WH2 strain: WH2 for biotransformation. The drug concentrations were measured before and after a 12-h incubation by liquid-chromatography-coupled mass spectrometry (LC–MS); conditions: bacteroides sp. wh2, 12 h, 2 µM
[5] = The drug is tested on Bacteroides xylanisolvens strain: DSM18836 for biotransformation. The drug concentrations were measured before and after a 12-h incubation by liquid-chromatography-coupled mass spectrometry (LC–MS); conditions: 2 µM
[6] = The drug is tested on Blautia luti strain: DSM14534 for biotransformation. The drug concentrations were measured before and after a 12-h incubation by liquid-chromatography-coupled mass spectrometry (LC–MS); assay type: ADME; design: dose 2 uM, timepoint 0 vs 12 hours; conditions: 2 µM
[7] = The drug is tested on Clostridium symbiosum strain: ATCC14940 for biotransformation. The drug concentrations were measured before and after a 12-h incubation by liquid-chromatography-coupled mass spectrometry (LC–MS); conditions: 2 µM
[8] = The drug is tested on Coprococcus comes strain: ATCC27758 for biotransformation. The drug concentrations were measured before and after a 12-h incubation by liquid-chromatography-coupled mass spectrometry (LC–MS); assay type: ADME; design: dose 2 uM, timepoint 0 vs 12 hours; conditions: 2 µM
[9] = The drug is tested on Dorea formicigenerans strain: ATCC27755 for biotransformation. The drug concentrations were measured before and after a 12-h incubation by liquid-chromatography-coupled mass spectrometry (LC–MS); conditions: 2 µM
[10] = The drug is tested on Eubacterium rectale strain: ATCC33656 for biotransformation. The drug concentrations were measured before and after a 12-h incubation by liquid-chromatography-coupled mass spectrometry (LC–MS); conditions: agathobacter rectalis, 2 µM
[11] = The drug is tested on Eubacterium ventriosum strain: ATCC27560 for biotransformation. The drug concentrations were measured before and after a 12-h incubation by liquid-chromatography-coupled mass spectrometry (LC–MS); assay type: ADME; design: dose 2 uM, timepoint 0 vs 12 hours; conditions: 2 µM
[12] = The drug is tested on Ruminococcus gnavus strain: ATCC29149 for biotransformation. The drug concentrations were measured before and after a 12-h incubation by liquid-chromatography-coupled mass spectrometry (LC–MS); conditions: mediterraneibacter gnavus, 2 µM
[13] = The drug is tested on Subdoligranulum variabile strain: DSM15176 for biotransformation. The drug concentrations were measured before and after a 12-h incubation by liquid-chromatography-coupled mass spectrometry (LC–MS); conditions: 2 µM
[14] = The drug is tested on Enterobacter cancerogenus strain: ATCC35316 for biotransformation. The drug concentrations were measured before and after a 12-h incubation by liquid-chromatography-coupled mass spectrometry (LC–MS); conditions: 2 µM
[15] = The drug is tested on Providencia stuartii strain: ATCC25827 for biotransformation. The drug concentrations were measured before and after a 12-h incubation by liquid-chromatography-coupled mass spectrometry (LC–MS); conditions: 2 µM
[16] = bifidobacterium adolescentis, 12 h, 2 µM
Description: The drug is tested on Bifidobacterium adolescentis strain: ATCC 15703 for biotransformation. The drug concentrations were measured before and after a 12-h incubation by liquid-chromatography-coupled mass spectrometry (LC–MS)

[17] = bacteroides intestinalis, 12 h, 2 µM
Description: The drug is tested on Bacteroides intestinalis strain: DSM17393 for biotransformation. The drug concentrations were measured before and after a 12-h incubation by liquid-chromatography-coupled mass spectrometry (LC–MS)

[18] = segatella copri, 12 h, 2 µM
Description: The drug is tested on Prevotella copri strain: DSM18205 for biotransformation. The drug concentrations were measured before and after a 12-h incubation by liquid-chromatography-coupled mass spectrometry (LC–MS)

[19] = enterocloster bolteae, 12 h, 2 µM
Description: The drug is tested on Clostridium bolteae strain: ATCCBAA-613 for biotransformation. The drug concentrations were measured before and after a 12-h incubation by liquid-chromatography-coupled mass spectrometry (LC–MS)

[20] = limosilactobacillus reuteri cf48-3a, 12 h, 2 µM
Description: The drug is tested on Lactobacillus reuteri CF48-3A strain: BEI HM-102 for biotransformation. The drug concentrations were measured before and after a 12-h incubation by liquid-chromatography-coupled mass spectrometry (LC–MS)

Measured: Bacterial Biotransformation

CN(C/C=C/C#CC(C)(C)C)Cc1cccc2ccccc12 [TERBINAFINE]
Compound NOT metabolized: all assays above

CC(C)(C)NC[C@H](O)COc1nsnc1N1CCOCC1.O=C(O)/C=C\C(=O)O [TIMOLOL MALEATE]
Compound NOT metabolized: all assays above

CN1[C@@H]2CC[C@H]1C[C@@H](OC(=O)c1c[nH]c3ccccc13)C2 [TROPISETRON]
Compound NOT metabolized: all assays above
